In US6855713B2, “Benzimidazole derivatives, a process for their manufacture and use as a medicine” (Boehringer Ingelheim Pharma KG, priority 2001, dated 2005) one finds IC50 data, which are given here for 19 compounds.

Structures can show the parent of a compound that is named as a salt.

T1 sequence (P20231 31-275): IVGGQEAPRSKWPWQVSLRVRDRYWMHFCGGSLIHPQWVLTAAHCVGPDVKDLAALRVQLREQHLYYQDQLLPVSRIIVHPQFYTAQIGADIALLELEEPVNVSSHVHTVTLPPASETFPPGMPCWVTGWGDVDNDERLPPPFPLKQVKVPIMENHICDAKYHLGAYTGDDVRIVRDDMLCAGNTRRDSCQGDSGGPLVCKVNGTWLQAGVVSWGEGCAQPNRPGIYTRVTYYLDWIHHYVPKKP

The first assay concerns the target T1, rh beta trypsin (Homo sapiens, UniProt P20231).
T1 construct: purchased Promega
The assay is described as follows: Trypsin (tryptase) inhibition, cleavage of N-p-Gly-Pro-Lys-para-nitroaniline measured at 405 nm. It counts as biochemical. The conditions noted are these: in vitro tests on the pro-drugs of formula IIA; read-out: IC50. The method, then: The compounds of the invention are notable for their effective trypsin-inhibiting property. The said capacity to inhibit trypsin activity was determined in accordance with the following trial descriptions.
The determinations are carried out in tris-HCl buffer (100 mM), that also contained calcium (5 mM) and heparin ([…]), at a pH of 7.4. As the standard, rh beta trypsin is used, this is commercially obtainable, for example, from Promega. A suitable substrate is N-p-Gly-Pro-Lys-para-nitroaniline in a concentration of 0.6 mM. The substrate is digested with trypsin, whereby p-nitro-aniline is obtained that can be measured at 405 nm. Normally, an incubation period of 5 minutes and an incubation temperature of 37° C. is chosen. For the enzyme activity, 0.91 U/ml are used. The determination is carriedout in an auto-analyser (Cobas Bio) from the firm Hoffmann LaRoche. The potential inhibitor substances are used in the screening procedure in concentrations of 10 μM, and the inhibition of the trypsin is given in percentages. At an inhibition in excess of 70%, the IC50 is determined (the concentration at which 50% of the enzyme activity is inhibited). After a 5-minute pre-incubation of the potential inhibiting substance, the substrate is added for the start of the reaction, whereby the production of p-nitro-aniline is taken, after 5 minutes, after testing the linearity, as a measure of the enzyme activity.
On to `CCCCCCCCOC(=O)N=C(N)c1ccc(CCc2nc3cc(C(=O)N4CCC(NC(=O)c5ccccc5)CC4)ccc3n2C)cc1` [IIA10], for which the IC50 turned out to be 7910 nM.

In the case of `Cn1c(CCc2ccc(C(N)=NC(=O)c3ccccc3)cc2)nc2cc(C(=O)N3CCC(NC(=O)c4ccccc4)CC3)ccc21` [IIA17], the IC50 stood at 360 nM.

The assay is the same for the next values; noted with them: in vitro; tris-HCl buffer pH 7.4 with calcium and heparin; substrate 0.6 mM; 5 minutes, 37° C.; read-out: Trypsin-inhibiting property.
`CC(=O)c1cccc(NC(=O)NC2CCN(C(=O)c3ccc4c(c3)nc(CCc3ccc(C(=N)N)cc3)n4C)CC2)c1` [Example 56, 2-[2-(4-Amidinophenyl)-ethyl]-1-methyl-benzimidazole-5-yl-carboxylic acid-{4-[3-(3-acetyl)-phenylureido]piperidinyl}-amide]: the IC50 was 1 to 20 nM.

Take `Cn1c(CCc2ccc(C(=N)N)cc2)nc2cc(C(=O)N3CCC(NC(=O)NC4CCCCC4)CC3)ccc21` [Example 40, 4-(2-{5-[4-(3-Cyclohexyl-ureido)-piperidine-1-carbonyl]-1-methyl-1H-benzimidazole-2-yl}-ethyl)-benzamidine]: the IC50 was 1 to 20 nM.

In the case of `Cn1c(CCc2ccc(C(=N)N)cc2)nc2cc(C(=O)N3CCC(NC(=O)Nc4cccc(C(F)(F)F)c4)CC3)ccc21` [Example 32, 4-[2-(1-Methyl-5-{4-[3-(3-trifluoromethyl-phenyl)-ureido]-piperidine-1-carbonyl}-1H-benzimidazole-2-yl)-ethyl]-benzamidine], the IC50 fell in the range of 1 to 20 nM.

Take `Cn1c(CCc2ccc(C(=N)N)cc2)nc2cc(C(=O)N3CCC(NC(=O)Nc4ccc5ccccc5c4)CC3)ccc21` [Example 36, 4-(2-{1-Methyl-5-[4-(3-naphthalen-2-yl-ureido)-piperidine-1-carbonyl]-1H-benzimidazole-2-yl}-ethyl)-benzamidine]: the IC50 is 1 to 20 nM.

On to `N=C(N)c1ccc(CCc2nc3cc(C(=O)N4CCC(NC(=O)c5ccccc5)CC4)ccc3n2C2CC2)cc1` [Example 196], for which the IC50 lay within 20 to 50 nM.

As for `Cn1c(CCc2ccc(C(=N)N)cc2)nc2cc(C(=O)N3CCC(NC(=O)Nc4ccccc4Cl)CC3)ccc21` [Example 29, 4-[2-(5-{4-[3-(2-Chloro-phenyl)-ureido]-piperidine-1-carbonyl}-1-methyl-1H-benzimidazole-2-yl)-ethyl]-benzamidine], the IC50 was 0.1 to 1 nM.

As to `Cn1c(CCc2ccc(C(=N)N)cc2)nc2cc(C(=O)N3CCC(NC(=O)Nc4ccccc4Br)CC3)ccc21` [Example 37, 4-[2-(5-{4-[3-(2-Bromo-phenyl)-ureido]-piperidine-1-carbonyl}-1-methyl-1H-benzimidazole-2-yl)-ethyl]-benzamidine], the IC50 fell in the range of 0.1 to 1 nM.

In the case of `Cn1c(CCc2ccc(C(=N)N)cc2)nc2cc(C(=O)N3CCC(NC(=O)Nc4ccc(F)cc4F)CC3)ccc21` [Example 33, 4-[2-(5-{4-[3-(2,4-Difluoro-phenyl)-ureido]-piperidine-1-carbonyl}-1-methyl-1H-benzimidazole-2-yl)-ethyl]-benzamidine], the IC50 is 1 to 20 nM.

As for `COC(=O)c1cccc(NC(=O)N(C)C2CCN(C(=O)c3ccc4c(c3)nc(CCc3ccc(C(=N)N)cc3)n4C)CC2)c1` [Example 61, 2-[2-(4-Amidinophenyl)-ethyl]-1-methyl-benzimidazole-5-yl-carboxylic acid-{4-[3-(3-methoxycarbonyl)-phenyl-1-methyl-ureido]piperidinyl)-amide], the IC50 lay in the range of 1 to 20 nM.

In the case of `COc1ccccc1NC(=O)NC1CCN(C(=O)c2ccc3c(c2)nc(CCc2ccc(C(=N)N)cc2)n3C)CC1` [Example 30, 4-[2-(5-{4-[3-(2-Methoxy-phenyl)-ureido]-piperidine-1-carbonyl}-1-methyl-1H-benzimidazole-2-yl)-ethyl]-benzamidine], the IC50 fell in the range of 1 to 20 nM.

In the case of `COC(=O)c1cccc(NC(=O)NC2CCN(C(=O)c3ccc4c(c3)nc(CCc3ccc(C(=N)N)cc3)n4C)CC2)c1` [Example 57, 2-[2-(4-Amidinophenyl)-ethyl]-1-methyl-benzimidazole-5-yl-carboxylic acid-{4-[3-(3-methoxycarbonyl)phenylureido]piperidinyl}-amide], the IC50 fell in the range of 1 to 20 nM.

`Cc1c(Cl)cccc1S(=O)(=O)N(C)C1CCN(C(=O)c2ccc3c(c2)nc(CCc2ccc(C(=N)N)cc2)n3C)CC1` [Example 170]: the IC50 lay in the range of 1 to 20 nM.

Take `Cn1c(CCc2ccc(CN)cc2)nc2cc(C(=O)N3CCC(NC(=O)c4ccccc4)CC3)ccc21` [Example 15, 2-[2-(4-Aminomethylphenyl)-ethyl]-1-methyl-benzimidazole-5-yl-carboxylic acid-(4-benzamido-piperidinyl)-amide]: the IC50 lay in the range of 1 to 20 nM.

For `CCOCCCn1c(CCc2ccc(C(=N)N)cc2)nc2cc(C(=O)N3CCC(NC(=O)Nc4ccccc4)CC3)ccc21` [Example 20, 2-[2-(4-Amidinophenyl)-ethyl]-1-(3-ethoxy-propyl)-benzimidazol-5-yl-carbonsäure-[4-(3-phenyl-ureido)-piperidinyl]-amid-dihydrochlorid], the IC50 lay in the range of 1 to 20 nM.

`Cn1c(CCc2ccc(C(=N)N)cc2)nc2cc(C(=O)N3CCC(NC(=O)Nc4ccc(Cl)cc4Cl)CC3)ccc21` [Example 35, 4-[2-(5-{4-[3-(2,4-Dichloro-phenyl)-ureido]-piperidine-1-carbonyl}-1-methyl-1H-benzimidazole-2-yl)-ethyl]-benzamidine]: the IC50 was in the range of 1 to 20 nM.

As to `CCCCS(=O)(=O)NC1CCN(C(=O)c2ccc3c(c2)nc(CCc2ccc(C(=N)N)cc2)n3C)CC1` [Example 173], the IC50 lay within 20 to 50 nM.

`Cn1c(CCc2ccc(C(=N)N)cc2)nc2cc(C(=O)N3CCC(NC(=O)Cc4cccc5ccccc45)CC3)ccc21` [Example 189]: the IC50 was 1 to 20 nM.
